Measured values as given in patent US20230172994A1, “METHODS OF PROMOTING VASCULOGENESIS” (TissueTech, Inc., priority 2019, published 2023).
Blank lines part the entries; values can stand above or below the compound they belong to.

Key:
Type in all cases: cell-based, human
P10 LNC [1] = test: Subcellular fractionation and Western blotting
Experimental: Nuclear and cytoplasmic fractions were prepared using the NE-PER® Nuclear and Cytoplasmic Extraction Reagents Kit (Pierce, Rockford, Ill., USA) as per manufacturer's instruction. Briefly, the treated P10 LNC were washed once on cold PBS and centrifuged at 500 g for 5 min.
The cell pellet was suspended in 100 μL of cytoplasmic extraction reagent I containing protease inhibitor by vortexing. The suspension was incubated on ice for 10 min followed by the addition of 6 μL of a second cytoplasmic extraction reagent II, vortexed for 5s, incubated on ice for 1 min and centrifuged for 5 min at 16 000 g. The supernatant fraction (cytoplasmic extract) was transferred to a pre-chilled tube. The insoluble pellet fraction, which contains crude nuclei, was resuspended in 50 μL of nuclear extraction reagent by vortexing during 15s three times and incubated on ice for 10 min each, then centrifuged for 10 min at 16 000 g. The resulting supernatant, constituting the nuclear extract, was used for the subsequent experiments. Protein concentration was quantitated using the BCA protein assay kit (Pierce). […] Immunoreactive proteins were detected with Western Lighting Chemiluminescence (PerkinElmer, Waltham, Mass.) and images captured by GE ImageQuant LAS 4000 (GE Healthcare Biosciences, Pittsburgh, Pa.).

P10 LNC [2] = test: Time course mRNA expression by qPCR
Experimental: (§1) Cell culture: For time course study, 1×10^5/ml of P10 LNC was seeded on three substrates: 3D Matrigel™, HA, or HC-HA/PTX3 in MESCM at 5, 15, 30, 60 mins, 24 h and 48 h (Table 2).
qPCR: Comparisons were made of mRNA expression of HIF1α, HIF1β, HIF2α, SDF-1, CXCR4, Hes1 at 5, 15, 30, 60, 120, 240 min or 24 and 48 h.
Cell culture: 1×10^5/ml of P10 LNC was seeded on three substrates: 3D Matrigel™ HA, or HC-HA/PTX3 in MESCM for 48 h. For time course study on HC-HA/PTX3, P10 LNC will be treated HC-HA/PTX3 for 5, 15, 30, 60 mins, 24 h and 48 h.
qPCR: Comparison mRNA expression VEGF, PDGFα, CD31 and IGF-1 for angiogenesis and NGF and p75^NTR for neurogenesis at 5, 15, 30, 60, 120, 240 min 24 or 48 h on 3D MG, immobilized HA and immobilized HC-HA/PTX3.
(§2) For the siRNA knockdown, 80% confluent P10 LNC on 6-well coated MG were subjected to transfection by mixing 200 μL of serum-free, antibiotic-free MESCM with 4 μL of HiPerFect siRNA transfection reagent (Final dilution, 1:300) and 6 μL of 20 μM of scRNA or siRNAs for BMPR1A, BMPR1B, BMPR2, and ACVR1 at the final concentration of 100 nM, drop-wise, followed by culturing in 1 mL of fresh MESCM at 37° C. for 24 h before soluble HC-HA/PTX3 was added at a final concentration of 20 μg/mL in MESCM.
Total RNAs were extracted from expanded LNC by RNeasy Mini Kit (Qiagen, Valencia, Calif.) according to manufacturer's guideline and 1-2 ug of RNA extract was reverse transcribed to cDNA with reverse-transcribed using Applied Biosystem™ High Capacity Reverse Transcription Kit (Thermo Fisher, Santa Clara, Calif.) using primers. The resultant cDNAs were amplified by specific TaqMan gene expression assay mix and universal PCR master mix in QuantStudio™ 5 Real Time PCR System (Thermo Fisher, Santa Clara, Calif.) with real-time RT-PCR profile consisting of 10 min of initial activation at 95° C., followed by 40 cycles of 15 sec denaturation at 95° C., and 1 min annealing and extension at 60° C. […] Threshold cycle number (Ct) was calculated with QuantStudio Design and. […] The relative gene expression data were analyzed by the comparative CT method (ΔΔCT). […]

P10 LNC [3] = test: Immunofluorescence staining (cytospin), nuclear translocation
Experimental: Immunostaining: LNC were then subjected to cytospin to determine nuclear translocation of HIF1α, HIF1β, HIF2α, SDF-1, CXCR4, and Hes1 at 5, 15, 30 and 60 mins.
Single cells of LNC or CSC at different passages were harvested with 0.05% trypsin and 1 mM EDTA at 37° C. for 10 min and prepared for cytospin using Cytofuge (StatSpin Inc., Norwood, Mass.) at 1000 g for 8 min. Cells were fixed with 4% formaldehyde, pH 7.0, for 15 min at room temperature, permeabilized with 0.2% Triton X-100 in PBS for 15 min and blocked with 2% bovine serum albumin (BSA) for 1 h before incubated with primary antibodies for 16 h at 4° C. After 3 washes with PBS, the corresponding Alexa Fluor-conjugated secondary IgG (all 1:100 dilution) were incubated for 60 min and 3 washing with PBS. After 3 washes with PBS, the second primary antibodies were incubated for 60 min and followed with the corresponding Alex Fluor-conjugated secondary IgG. The nucleus was counterstained with Hoechst 33342 before being analyzed with Zeiss LSM 700 confocal microscope (Carl Zeiss, Thornwood, N.Y.). Corresponding mouse and rabbit sera were used as negative controls for primary monoclonal and polyclonal antibodies, respectively.

Rac1 = test: Rho GTPase activity in LNC; conditions: within 60 minutes, HC-HA/PTX3 active at 5 and 15 min, reduced at 30 min
P4 LNC [4] = test: Immunofluorescence staining (cytospin), nuclear translocation
Experimental: Cell culture: For time course study, 1×10^5/ml of P4 LNC were seeded on substrates HA or HC-HA/PTX3 in MESCM at 5, 15, 30, 60 min, 24 h and 48 h (Table 3).
Immunostaining: LNC then were subjected to cytospin to determine nuclear translocation of HIF1α, HIF1β, HIF2α, SDF-1, CXCR4, and Hes1 at 5, 15, 30 and 60 min.

HUVEC or pericytes (LNC) = test: Cell proliferation by Edu nuclear staining; conditions: HUVEC or pericytes (LNC) alone
Description: Cells: GFP HUVEC (P3) were purchased from Neuromics (Cat #GF01). These cells were isolated from normal human umbilical vein and transfected with GFP-lentiviral particle at passage 1. Puromycin resistant GFP HUVEC were maintained on fibronectin coated solution in Endo-growth medium containing 5% FBS and growth supplement until passage 3. Cells were split 1:3 every three days when ˜70%-90% confluence is reached. Cells of passage 3-8 were used for all experiments.
LNC (P2-P5) was expanded in MESCM containing 4 ng/ml bFGF and 10 ng/ml LIF on 6-well plastic coated with 5% Matrigel™

P10 LNC [5] = test: Cell aggregation / sphere formation by phase contrast microscopy
Experimental: as §1
For expansion, single cells derived from limbal clusters or CSC after digestion with 0.25% trypsin and 1 mM EDTA (T/E) were seeded at 1×10^4/cm^2 in the 6-well plate pre-coated with 5% Matrigel™ in MESCM and cultured in humidified 5% CO2 with media change every 3-4 days for total 6-7 days. For cells culture in three-dimensional (3D) Matrigel, Matrigel was prepared by adding 50% Matrigel diluted in MESCM per chamber of an 8-well chamber slide following incubation at 37° C. for 60 min. LNC cells were seeded in 3D Matrigel and cultured for 24 h or 48 h in MESCM.
as §2

P4 LNC [6] = test: Notch signaling and transcript expression in P4 LNC on plastic, 3D Matrigel or immobilized HC-HA/PTX3
LEPC and LNC = test: Blocking Notch signaling in LEPC+LNC on immobilized HC-HA/PTX3
Experimental: FIGS. 41A-41C illustrate blocking Notch signaling inhibits BMP and non-canonical Wnt in LEPC and LNC on immobilized HC-HA/PTX3 at 48 hours. FIG. 41A illustrates a graph of mRNA levels of various genes following treatment of HC-HA/PTX3 and HC-HA/PTX3/DAPT in LNCS renunioned with LEPC. FIG. 41B illustrates immunostaining with various markers.

Compound: c1cc(CN2CCCNCCNCCCNCC2)ccc1CN1CCCNCCNCCCNCC1 [AMD3100]
nuclear pSmad1/5 (P10 LNC [1]; 5, 15, 30 min): not promoted
CXCR4 and Pax6 protein in cytoplasmic and nuclear fractions (P10 LNC [1]; 15 and 30 min, AMD3100 all time points): remain in cytoplasmic fraction
HIF-1α and HIF-1β transcripts (P10 LNC [2]; addition of AMD3100): upregulated two peaks
transcript levels of BMP2, BMP4 and BMP6, effect of inhibitor (P10 LNC [2]; throughout 48 h, with soluble HC-HA/PTX3): aborted
Pax6, p75NTR, NGF, Musashi-1, Msx-1 and FoxD3 transcripts, effect of inhibitor (P10 LNC [2]; with soluble HC-HA/PTX3): significant downregulation
CXCR4 staining (P10 LNC [3]; 60 min period, P10 LNC, soluble HC-HA/PTX3 with or without AMD3100, or 3D MG): reverted to that of 3D MG
nuclear staining of pSmad1/5 (P10 LNC [3]; P10 LNC, soluble HC-HA/PTX3 with or without AMD3100): absent nuclear staining
immunofluorescence of SDF-1 (P10 LNC [3]; throughout 60 min): became negative

Rac1 GTPase activities (Rac1): gradual decline
Compound: hyaluronic acid [HA]
HIF2α (P4 LNC [4]): No changes
NICD and SDF1 (P4 LNC [4]): No changed
time of HIF1α nuclear translocation (P4 LNC [4]): did the same
time of HIF1β nuclear translocation (P4 LNC [4]): 5 to 30 min
time of Hes1 nuclear translocation (P4 LNC [4]): 5 to 15 min
CXCR4 nuclear translocation (P4 LNC [4]; 5, 30 min, transient): does not
cell proliferation (Edu nuclear staining) (HUVEC or pericytes (LNC)): promoted cell proliferation
cell aggregation as early as 60 min (P10 LNC [5]): not
nuclear PP2A C subunit (P10 LNC [3]; 5 and 30 min, comparators entire 60 min): significantly less expression
CXCR4 localisation (P10 LNC [3]; HC-HA/PTX3: as early as 15 min, prominent at 30 min, no longer nuclear at 60 min): membrane translocation
staining of HIF1α and HIF1β (P10 LNC [3]; HC-HA/PTX3: at 5 min, HIF1α sustained till 15 and 30 min): both cytoplasmic and nuclear
nuclear p-PHD2 (serine 125) (P10 LNC [3]; HC-HA/PTX3 at 5 and 15 min, HA and 3D MG throughout 60 min): maintained nuclear Phospho-PHD2
earliest nucleus Hes1 (P10 LNC [3]; P10 LNC): 15 min

Compound: C[C@H](NC(=O)Cc1cc(F)cc(F)c1)C(=O)N[C@H](C(=O)OC(C)(C)C)c1ccccc1 [DAPT]
cell aggregation of LNC on HC-HA/PTX3, effect of inhibitor (P4 LNC [6]): did not prevent
Notch1/2/3/Jagged 1/Hes1 signaling with MET epithelial phenotype (p63α, Pax6, Sox9), effect of inhibitor (P4 LNC [6]; LNC on HC-HA/PTX3): further promoted
nuclear psmad/1/5/8 and c-Jun (LEPC and LNC; LEPC+LNC on immobilized HC-HA/PTX3): absence
quiescence epithelium markers (LEPC and LNC; LEPC+LNC on immobilized HC-HA/PTX3, 48 hours): significantly downregulated
